Data taken from US12384770B2, “Heterocyclic compound” (Takeda Pharmaceutical Company Limited, priority 2019, dated 2025).

Molecular target: T1, HDAC6 enzyme (Homo sapiens, UniProt Q9UBN7)
T1 construct: HDAC6 enzyme prepared by transducing full length HDAC6 gene into Sf-9 insect cells; GST; purchased SignalChem; host or cells: Sf-9 insect cells
T1 sequence (Q9UBN7 1-1215): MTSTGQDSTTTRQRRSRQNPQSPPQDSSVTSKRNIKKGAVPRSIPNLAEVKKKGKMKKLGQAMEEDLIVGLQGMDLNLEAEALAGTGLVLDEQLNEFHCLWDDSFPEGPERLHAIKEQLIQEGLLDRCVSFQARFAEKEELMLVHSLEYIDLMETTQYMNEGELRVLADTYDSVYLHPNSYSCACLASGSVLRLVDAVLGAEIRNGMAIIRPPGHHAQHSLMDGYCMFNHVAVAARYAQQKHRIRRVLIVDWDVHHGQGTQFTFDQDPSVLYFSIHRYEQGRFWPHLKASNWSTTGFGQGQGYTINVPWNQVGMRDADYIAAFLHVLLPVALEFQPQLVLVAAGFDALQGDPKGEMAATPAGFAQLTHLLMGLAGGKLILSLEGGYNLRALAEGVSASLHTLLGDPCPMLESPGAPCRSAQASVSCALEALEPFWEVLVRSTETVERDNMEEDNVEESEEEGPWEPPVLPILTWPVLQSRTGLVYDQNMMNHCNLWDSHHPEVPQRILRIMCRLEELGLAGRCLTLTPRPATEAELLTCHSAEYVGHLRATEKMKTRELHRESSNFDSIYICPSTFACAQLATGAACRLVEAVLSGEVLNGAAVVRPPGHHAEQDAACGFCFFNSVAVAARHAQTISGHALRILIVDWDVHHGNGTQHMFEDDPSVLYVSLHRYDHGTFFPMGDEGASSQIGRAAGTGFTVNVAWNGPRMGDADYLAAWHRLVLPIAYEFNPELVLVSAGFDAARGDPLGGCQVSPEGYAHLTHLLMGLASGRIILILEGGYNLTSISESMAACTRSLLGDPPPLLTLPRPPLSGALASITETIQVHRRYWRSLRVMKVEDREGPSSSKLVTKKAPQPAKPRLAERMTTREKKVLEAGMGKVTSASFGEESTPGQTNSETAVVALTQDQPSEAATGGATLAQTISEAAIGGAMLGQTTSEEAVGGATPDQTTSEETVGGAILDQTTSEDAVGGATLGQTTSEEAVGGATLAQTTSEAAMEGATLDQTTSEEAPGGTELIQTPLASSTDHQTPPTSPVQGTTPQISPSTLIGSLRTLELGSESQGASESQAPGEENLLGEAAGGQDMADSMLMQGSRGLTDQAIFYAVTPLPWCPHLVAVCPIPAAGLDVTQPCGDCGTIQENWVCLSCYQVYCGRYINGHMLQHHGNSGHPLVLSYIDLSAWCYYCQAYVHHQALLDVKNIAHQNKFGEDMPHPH
Assay: HDAC6 enzyme inhibitory assay (HDAC-Glo I/II Assay kit)
Type: biochemical
Details: wells without enzyme = 100% inhibition; for inhibition at 10 µM: read-out: HDAC6 inhibitory rate (%) (10 μM)
Experimental: Experimental Example 1 HDAC6 Enzyme Inhibitory Assay
HDAC6 enzyme prepared by transducing full length HDAC6 gene into Sf-9 insect cells and purifying by GST affinity column were purchased from SignalChem. Using this enzyme, HDAC6 enzyme inhibitory activity of the compound of the present invention were evaluated. Enzymes were used after preserved at −70° C. HDAC6 enzyme inhibitory activity of the compound of the present invention was measured using HDAC-Glo™ I/II Assay kit (Promega) according to the following experimental method. The test compound diluted with assay buffer (24 mM Tris-HCl (pH 7.5), 1 mM MgCl2, 0.35 mM KCl, 135 mM NaCl, 0.6 mM Glutathione, 0.01% Tween-20) was added to a 384-well plate by each 2 μL. Then, HDAC6 enzyme solution diluted with assay buffer was added thereto by each 4 μL, and the plate was incubated at room temperature for 60 min. After incubated, HDAC substrate-Developer solution prepared according to Promega protocol attached to the assay kit was added to the 384-well plate by each 2 μL, and the enzyme reaction was started. After reacting at room temperature for 20 min, luminescence level was measured using plate reader Envision (PerkinElmer). The inhibitory activity of each compound of Example was calculated as a relative activity value when luminescence level in wells without enzyme is considered as 100% inhibition.

inhibition at 10 µM [%]	Compound	other results
98	O=C1c2cc(-c3nnc(C(F)F)o3)ccc2CN1[C@H](c1ccc(F)cc1)[C@H](O)C1CC1 (racemic) [Example 140, 2-[(1RS,2RS)-2-cyclopropyl-1-(4-fluorophenyl)-2-hydroxyethyl]-6-[5-(difluoromethyl)-1,3,4-oxadiazol-2-yl]-2,3-dihydro-1H-isoindol-1-one]	
100	O=C1c2cc(-c3nnc(C(F)F)o3)ccc2CN1[C@H](c1ncccn1)[C@@H](O)c1ccc(Cl)cc1 (racemic) [Example 93, 2-[(1RS,2SR)-2-(4-chlorophenyl)-2-hydroxy-1-(pyrimidin-2-yl)ethyl]-6-[5-(difluoromethyl)-1,3,4-oxadiazol-2-yl]-2,3-dihydro-1H-isoindol-1-one]	
100	O=C1c2cc(-c3nnc(C(F)F)o3)ccc2CN1[C@H](c1ccc(F)cn1)[C@H](O)c1ccccn1 (racemic) [Example 144, 6-[5-(difluoromethyl)-1,3,4-oxadiazol-2-yl]-2-[(1RS,2SR)-1-(5-fluoropyridin-2-yl)-2-hydroxy-2-(pyridin-2-yl)ethyl]-2,3-dihydro-1H-isoindol-1-one]	
	O=C1c2cc(-c3nnc(C(F)F)o3)ccc2CN1[C@H](c1ccccn1)[C@@H](O)c1cccc(Cl)n1 (single isomer, unassigned) [Example 115, 2-[(1R*,2R*)-2-(6-chloropyridin-2-yl)-2-hydroxy-1-(pyridin-2-yl)ethyl]-6-[5-(difluoromethyl)-1,3,4-oxadiazol-2-yl]-2,3-dihydro-1H-isoindol-1-one]	HDAC6 inhibitory rate (%) (10 μM) (10 µM): 100%
101	O=C1c2cc(-c3nnc(C(F)F)o3)ccc2CN1[C@H](c1cccc(F)n1)[C@@H](O)c1ccc(F)cn1 (single isomer, unassigned) [Example 126, 6-[5-(difluoromethyl)-1,3,4-oxadiazol-2-yl]-2-[(1R*,2R*)-2-(5-fluoropyridin-2-yl)-1-(6-fluoropyridin-2-yl)-2-hydroxyethyl]-2,3-dihydro-1H-isoindol-1-one]	
100	O=C1c2cc(-c3nnc(C(F)F)o3)ccc2CN1[C@H](C1CC1)[C@@H](O)c1ccc(F)nc1 [Example 63, 2-[(1R,2S)-1-cyclopropyl-2-(6-fluoropyridin-3-yl)-2-hydroxyethyl]-6-[5-(difluoromethyl)-1,3,4-oxadiazol-2-yl]-2,3-dihydro-1H-isoindol-1-one]	
100	O=C1c2cc(-c3nnc(C(F)F)o3)ccc2CN1[C@H](C1CCC(F)(F)CC1)[C@@H](O)c1ccc(F)nc1 (racemic) [Example 82, 2-[(1RS,2SR)-1-(4,4-difluoro-cyclohexyl)-2-(6-fluoropyridin-3-yl)-2-hydroxyethyl]-6-[5-(difluoromethyl)-1,3,4-oxadiazol-2-yl]-2,3-dihydro-1H-isoindol-1-one]	
98	O=C1c2cc(-c3nnc(C(F)F)o3)ccc2CN1[C@H](C1CC1)[C@@H](O)c1ccc(Cl)cn1 (racemic) [Example 65, 2-[(1RS,2RS)-2-(5-chloropyridin-2-yl)-1-cyclopropyl-2-hydroxyethyl]-6-[5-(difluoromethyl)-1,3,4-oxadiazol-2-yl]-2,3-dihydro-1H-isoindol-1-one]	
100	O=C1c2cc(-c3nnc(C(F)F)o3)ccc2CN1[C@H](C1CC1)[C@@H](O)c1ccc(C(F)(F)F)nc1 (single isomer, unassigned) [Example 77, 2-{(1R*,2S*)-1-cyclopropyl-2-hydroxy-2-[6-(trifluoromethyl)pyridin-3-yl]ethyl}-6-[5-(difluoromethyl)-1,3,4-oxadiazol-2-yl]-2,3-dihydro-1H-isoindol-1-one]	
100	O=C1c2cc(-c3nnc(C(F)F)o3)ccc2CN1[C@H](C1CC1)[C@@H](O)c1ccccn1 [Example 38, 2-[(1R,2R)-1-cyclopropyl-2-hydroxy-2-(pyridin-2-yl)ethyl]-6-[5-(difluoromethyl)-1,3,4-oxadiazol-2-yl]-2,3-dihydro-1H-isoindol-1-one]	
99	O=C1c2cc(-c3nnc(C(F)F)o3)ccc2CN1[C@H](C1CC1)[C@H](O)c1ccc(F)cn1 [Example 150, 2-[(1R,2S)-1-cyclopropyl-2-(5-fluoropyridin-2-yl)-2-hydroxyethyl]-6-[5-(difluoromethyl)-1,3,4-oxadiazol-2-yl]-2,3-dihydro-1H-isoindol-1-one]	
99	O=C1c2cc(-c3nnc(C(F)F)o3)ccc2CN1[C@H](c1ccccc1)[C@@H](O)c1ccccc1 [Example 11, 6-[5-(difluoromethyl)-1,3,4-oxadiazol-2-yl]-2-[(1R,2S)-2-hydroxy-1,2-diphenylethyl]-2,3-dihydro-1H-isoindol-1-one]	
101	O=C1c2cc(-c3nnc(C(F)F)o3)ccc2CN1[C@H](C1CCOCC1)[C@@H](O)c1ccc(Cl)cc1 (single isomer, unassigned) [Example 83, 2-[(1R*,2S*)-2-(4-chlorophenyl)-2-hydroxy-1-(oxan-4-yl)ethyl]-6-[5-(difluoromethyl)-1,3,4-oxadiazol-2-yl]-2,3-dihydro-1H-isoindol-1-one]	
100	O=C1c2cc(-c3nnc(C(F)F)o3)ccc2CN1[C@H](c1cnccn1)[C@@H](O)c1ccc(F)cc1 (single isomer, unassigned) [Example 98, 6-[5-(difluoromethyl)-1,3,4-oxadiazol-2-yl]-2-[(1R*,2S*)-2-(4-fluorophenyl)-2-hydroxy-1-(pyrazin-2-yl)ethyl]-2,3-dihydro-1H-isoindol-1-one]	
	O=C1c2cc(-c3nnc(C(F)F)o3)ccc2CN1[C@H](c1cnccn1)[C@@H](O)c1ccc(F)c(F)c1 (single isomer, unassigned) [Example 86, 6-[5-(difluoromethyl)-1,3,4-oxadiazol-2-yl]-2-[(1R*,2S*)-2-(3,4-difluorophenyl)-2-hydroxy-1-(pyrazin-2-yl)ethyl]-2,3-dihydro-1H-isoindol-1-one]	HDAC6 inhibitory rate (%) (10 μM): 100%
	O=C1c2cc(-c3nnc(C(F)F)o3)ccc2CN1[C@H](c1cnccn1)[C@@H](O)c1cccc(Cl)c1 (single isomer, unassigned) [Example 92, 2-[(1R*,2S*)-2-(3-chlorophenyl)-2-hydroxy-1-(pyrazin-2-yl)ethyl]-6-[5-(difluoromethyl)-1,3,4-oxadiazol-2-yl]-2,3-dihydro-1H-isoindol-1-one]	HDAC6 inhibitory rate (%) (10 μM): 100%
99	O=C1c2cc(-c3nnc(C(F)F)o3)ccc2CN1[C@H](c1cccc(C(F)(F)F)c1)[C@@H](O)c1ccccn1 (racemic) [Example 24, 6-[5-(difluoromethyl)-1,3,4-oxadiazol-2-yl]-2-{(1RS,2RS)-2-hydroxy-2-(pyridin-2-yl)-1-[3-(trifluoromethyl)phenyl]ethyl}-2,3-dihydro-1H-isoindol-1-one]	
	O=C1c2cc(-c3nnc(C(F)F)o3)ccc2CN1[C@H](c1cccc(F)n1)[C@@H](O)c1cccc(F)c1 (single isomer, unassigned) [Example 90, 6-[5-(difluoromethyl)-1,3,4-oxadiazol-2-yl]-2-[(1R*,2S*)-2-(3-fluorophenyl)-1-(6-fluoropyridin-2-yl)-2-hydroxyethyl]-2,3-dihydro-1H-isoindol-1-one]	HDAC6 inhibitory rate (%) (10 μM): 100%
